Assay results reported in ChEMBL document CHEMBL4130498, “Synthesis and antibacterial activity of new symmetric polyoxygenated dibenzofurans” (Eur J Med Chem, 2017).
Values after ≈ are worked out from the molar mass of the structure shown. Structures can show the parent of a compound that is named as a salt.

How the values were obtained:
Staphylococcus aureus [1] = experiment: Antibacterial activity against methicillin-resistant vancomycin-intermediate resistant Staphylococcus aureus NRS402 after 24 hrs by broth microdilution method; type: functional; conditions: NRS402, 24 h
Saccharomyces cerevisiae [2] = experiment: Toxicity in Saccharomyces cerevisiae harboring rad52/rad9 deletion mutant after 24 to 48 hrs by broth microdilution method; type: organism-based; conditions: in vivo
Staphylococcus aureus [3] = experiment: Antibacterial activity against methicillin-sensitive Staphylococcus aureus ATCC 25923 after 24 hrs by broth microdilution method; type: functional; conditions: ATCC 25923, 24 h
Saccharomyces cerevisiae [4] = experiment: Toxicity in Saccharomyces cerevisiae harboring mad2 deletion mutant after 24 to 48 hrs by broth microdilution method; type: organism-based; conditions: in vivo
Enterococcus faecalis = experiment: microbe, parasite or virus in culture; type: functional; conditions: ATCC 29212, 24 h
Description: Antibacterial activity against Enterococcus faecalis ATCC 29212 after 24 hrs by broth microdilution method

Saccharomyces cerevisiae [5] = experiment: Toxicity in Saccharomyces cerevisiae harboring yap1 deletion mutant after 24 to 48 hrs by broth microdilution method; type: organism-based; conditions: in vivo
Saccharomyces cerevisiae [6] = experiment: Toxicity in Saccharomyces cerevisiae BY4741 after 24 to 48 hrs by broth microdilution method; type: organism-based; conditions: in vivo
Saccharomyces cerevisiae [7] = experiment: Toxicity in Saccharomyces cerevisiae harboring rad52/rad9 deletion mutant assessed as cell growth at 128 uM after 24 to 48 hrs by broth microdilution method relative to control; type: organism-based; conditions: in vivo
Saccharomyces cerevisiae [8] = experiment: Toxicity in Saccharomyces cerevisiae BY4741 assessed as cell growth at 128 uM after 24 to 48 hrs by broth microdilution method relative to control; type: organism-based
Saccharomyces cerevisiae [9] = experiment: Toxicity in Saccharomyces cerevisiae harboring yap1 deletion mutant assessed as cell growth at 128 uM after 24 to 48 hrs by broth microdilution method relative to control; type: organism-based; conditions: in vivo
Saccharomyces cerevisiae [10] = experiment: Toxicity in Saccharomyces cerevisiae harboring mad2 deletion mutant assessed as cell growth at 128 uM after 24 to 48 hrs by broth microdilution method relative to control; type: organism-based; conditions: in vivo

`Oc1cc(O)c2c(c1)oc1cc(O)cc(O)c12` was tested, and the MIC (Staphylococcus aureus [1]) was > 128 µM, the MIC (Saccharomyces cerevisiae [2]) was > 128 µM and the MIC (Staphylococcus aureus [3]) was > 128 µM. The MIC (Saccharomyces cerevisiae [4]) was > 128 µM, the MIC (Enterococcus faecalis) was > 128 µM and the MIC (Saccharomyces cerevisiae [5]) was > 128 µM. The MIC (Saccharomyces cerevisiae [6]) was > 128 µM.

For `CCC(C)C(=O)c1c(O)cc(O)cc1O` (stereo not given), the MIC (Staphylococcus aureus [1]) was 32 µM (≈ 6.73 µg/mL), the MIC (Saccharomyces cerevisiae [2]) was > 128 µM and the MIC (Staphylococcus aureus [3]) was 64 µM (≈ 13.5 µg/mL). For the same compound, the MIC (Saccharomyces cerevisiae [4]) was > 128 µM, the MIC (Enterococcus faecalis) was 64 µM (≈ 13.5 µg/mL) and the MIC (Saccharomyces cerevisiae [5]) was > 128 µM. The MIC (Saccharomyces cerevisiae [6]) was > 128 µM.

`CCC(C)C(=O)c1c(O)cc(O)c2c1oc1c(C(=O)C(C)CC)c(O)cc(O)c12` (stereo not given) was tested, and the MIC (Staphylococcus aureus [1]) was 8 µM (≈ 3.2 µg/mL), the MIC (Saccharomyces cerevisiae [2]) was > 128 µM and the MIC (Staphylococcus aureus [3]) was 8 µM (≈ 3.2 µg/mL). The MIC (Saccharomyces cerevisiae [4]) was > 128 µM, the MIC (Enterococcus faecalis) was 32 µM (≈ 12.8 µg/mL) and the MIC (Saccharomyces cerevisiae [5]) was > 128 µM. The MIC (Saccharomyces cerevisiae [6]) was > 128 µM.

`CCC(C)C(=O)c1c(O)cc(O)c(CCC(C)C)c1O` (stereo not given) was tested, and the Activity (Saccharomyces cerevisiae [7]) was 20 to 40%, the MIC (Staphylococcus aureus [1]) was 32 µM (≈ 8.97 µg/mL) and the MIC (Saccharomyces cerevisiae [2]) was > 128 µM. It also gave an MIC (Staphylococcus aureus [3]) of 32 µM (≈ 8.97 µg/mL), an Activity (Saccharomyces cerevisiae [8]) of 20 to 40% and an Activity (Saccharomyces cerevisiae [9]) of 20 to 40%. The MIC (Saccharomyces cerevisiae [4]) was > 128 µM, the Activity (Saccharomyces cerevisiae [10]) was 20 to 40% and the MIC (Enterococcus faecalis) was 32 µM (≈ 8.97 µg/mL). For the same compound, the MIC (Saccharomyces cerevisiae [5]) was > 128 µM and the MIC (Saccharomyces cerevisiae [6]) was > 128 µM.

In the case of `CCC(C)C(=O)c1c(O)c(CCC(C)C)c(O)c(-c2c(O)c(CCC(C)C)c(O)c(C(=O)C(C)CC)c2O)c1O` (stereo not given), the MIC (Staphylococcus aureus [1]) was 1 µM (≈ 0.559 µg/mL), the MIC (Saccharomyces cerevisiae [2]) was > 128 µM and the MIC (Staphylococcus aureus [3]) was 8 µM (≈ 4.47 µg/mL). For the same compound, the MIC (Saccharomyces cerevisiae [4]) was > 128 µM, the MIC (Enterococcus faecalis) was 4 µM (≈ 2.23 µg/mL) and the MIC (Saccharomyces cerevisiae [5]) was > 128 µM. The MIC (Saccharomyces cerevisiae [6]) was > 128 µM.

`CCCc1c(O)c(C(=O)C(C)CC)c(O)c(-c2c(O)c(CCC)c(O)c(C(=O)C(C)CC)c2O)c1O` (stereo not given) was tested, and the MIC (Staphylococcus aureus [1]) was 0.5 µM (≈ 0.251 µg/mL), the MIC (Saccharomyces cerevisiae [2]) was > 128 µM and the MIC (Staphylococcus aureus [3]) was 4 µM (≈ 2.01 µg/mL). For the same compound, the MIC (Saccharomyces cerevisiae [4]) was > 128 µM, the MIC (Enterococcus faecalis) was 2 µM (≈ 1.01 µg/mL) and the MIC (Saccharomyces cerevisiae [5]) was > 128 µM. For the same compound, the MIC (Saccharomyces cerevisiae [6]) was > 128 µM.

With `CCCc1c(O)cc(O)c(C(=O)C(C)CC)c1O` (stereo not given) the Activity (Saccharomyces cerevisiae [7]) was 20 to 40%, the MIC (Staphylococcus aureus [1]) was 64 µM (≈ 16.1 µg/mL) and the MIC (Saccharomyces cerevisiae [2]) was > 128 µM. It also gave an MIC (Staphylococcus aureus [3]) of 64 µM (≈ 16.1 µg/mL), an Activity (Saccharomyces cerevisiae [8]) of 20 to 40% and an Activity (Saccharomyces cerevisiae [9]) of 20 to 40%. For the same compound, the MIC (Saccharomyces cerevisiae [4]) was > 128 µM, the Activity (Saccharomyces cerevisiae [10]) was 20 to 40% and the MIC (Enterococcus faecalis) was 64 µM (≈ 16.1 µg/mL). The MIC (Saccharomyces cerevisiae [5]) was > 128 µM and the MIC (Saccharomyces cerevisiae [6]) was > 128 µM.

`CCCc1c(O)c(C(=O)C(C)CC)c2oc3c(C(=O)C(C)CC)c(O)c(CCC)c(O)c3c2c1O` (stereo not given) was tested, and the MIC (Staphylococcus aureus [1]) was 0.5 µM (≈ 0.242 µg/mL), the MIC (Saccharomyces cerevisiae [2]) was > 128 µM and the MIC (Staphylococcus aureus [3]) was 0.5 µM (≈ 0.242 µg/mL). The MIC (Saccharomyces cerevisiae [4]) was > 128 µM, the MIC (Enterococcus faecalis) was 0.5 µM (≈ 0.242 µg/mL) and the MIC (Saccharomyces cerevisiae [5]) was > 128 µM. The MIC (Saccharomyces cerevisiae [6]) was > 128 µM.

`Cc1onc(-c2ccccc2)c1C(=O)N[C@@H]1C(=O)N2[C@@H]1SC(C)(C)[C@@H]2C(=O)O` was tested, and the MIC (Staphylococcus aureus [1]) was 150 µM (≈ 60.2 µg/mL), the MIC (Staphylococcus aureus [3]) was ≤ 0.3 µM and the MIC (Enterococcus faecalis) was 9.5 µM (≈ 3.81 µg/mL).

`CN[C@H](CC(C)C)C(=O)N[C@H]1C(=O)N[C@@H](CC(N)=O)C(=O)N[C@H]2C(=O)N[C@H]3C(=O)N[C@H](C(=O)N[C@H](C(=O)O)c4cc(O)cc(O)c4-c4cc3ccc4O)[C@H](O)c3ccc(c(Cl)c3)Oc3cc2cc(c3O[C@@H]2O[C@H](CO)[C@@H](O)[C@H](O)[C@H]2O[C@H]2C[C@](C)(N)[C@H](O)[C@H](C)O2)Oc2ccc(cc2Cl)[C@H]1O` [VANCOMYCIN HYDROCHLORIDE] showed an MIC (Staphylococcus aureus [1]) of 5.5 µM, an MIC (Staphylococcus aureus [3]) of 0.7 µM and an MIC (Enterococcus faecalis) of 1.4 µM.
